Measured values as given in ChEMBL document CHEMBL3507680, “University of Dundee, Gates Library screen for HepG2 cell viability”.

Experiment: Human HepG2 cell viability assay in 384 well format
Type: toxicity, cell-based
Set-up: dose 125 nL, time 70.5 hour; concentration not given beside the values
Conditions: HepG2 cells, read-out: Inhibition

SMILES | cytotoxicity at 70.5 h [%]
Cc1noc(C)c1-c1cncc(C2CCCN2Cc2nccs2)n1 (stereo not given) | -9.87
Cn1cccc1C(=O)N1CCn2nnc(COc3cccnc3)c2C1 | -8.46
CC(c1c(F)cccc1F)N1CCN(Cc2nccn2C)CC1 (stereo not given) | 24.5
CCCn1cc(NC(=O)c2ccc(S(C)(=O)=O)cc2)ccc1=O | -1.34
Cc1cnc(C(=O)N2CCCN(c3nc(C)cs3)CC2)cn1 | -7.69
CN(Cc1nc2ccccc2c(=O)[nH]1)C1CC(=O)N(C2CC2)C1=O (stereo not given) | -12.1
CNC(=O)c1n[nH]c2c1C(c1cccc3c1OC(C)(C)C3)CC(=O)N2 (stereo not given) | -1.8
O=C1[C@@H]2CCN(Cc3ccoc3)C[C@@H]2OCCN1Cc1cccnc1 | -20.5
Cc1cc(CN2CCc3nc(C)n(C)c(=O)c3CC2)[nH]n1 | -5.95
CC(C)OCCCNC(=O)C1CCC(=O)N(C2CCCC2)C1 (stereo not given) | 17.3
COCCN(c1ccncc1)S(=O)(=O)c1cc(C)cc(F)c1 | -10.7
Cc1c(Cl)cccc1S(=O)(=O)NCc1cnc(N(C)C)n1C | -8.26
O=C(Cc1ccccc1)NC[C@H]1Cn2ccnc2CO1 | 5.13
O=C(c1scc2c1OCCO2)N1CCOC(CCc2ccccc2)C1 (stereo not given) | 1.27
CC(C)(NC(=O)Cc1ccccc1F)C(=O)O | -4.89
CCNC(=O)[C@@H]1C[C@H](N)CN1C(=O)C1(c2ccc(OC)cc2)CCCC1 | -10.3
CCc1cccc(NC(=O)N2CCn3cnc(COC)c3C2)c1 | -14.2
Fc1ccc(-c2nc(CN3CCOC(Cn4cccn4)C3)co2)cc1 (stereo not given) | -5.89
Cc1ccc(N2N=C(C(=O)NCC3CC3)S(=O)(=O)c3cccnc32)cc1 | -8.14
CNC(=O)C(NC(=O)c1c(C)noc1C)c1ccc(F)c(F)c1 (stereo not given) | 2.39
Cc1nnc(SCCCNC(=O)c2ccc3c(c2)OCO3)s1 | -9.91
c1cc(C[C@H]2[C@H](N3CCOCC3)CCN2Cc2ccoc2)ccn1 | -11.4
Cc1cnn(CCC(=O)N2CCN(c3ccc(C#N)cn3)CC2)c1 | -3.08

SMILES | cytotoxicity at 70.5 h [%]
OC1(CN2CCCCC2)CCN(Cc2c[nH]c(CC3CCCC3)n2)C1 (stereo not given) | -8.48
COC(=O)c1cc(NC2CCN(CC(F)(F)F)C2=O)ccc1C (stereo not given) | -1.18
Cc1nc(O)cc([C@@H]2CN(C(=O)C3CC3)C[C@H]2c2ccccc2F)n1 | -2.23
Cc1nccc(C(=O)NC(COCC(C)C)c2ccco2)n1 (stereo not given) | 19.4
O=C(CCc1cc2n(n1)CCCN(C(=O)c1ccccn1)C2)NC1CC1 | -4.46
CNC(=O)c1coc(-c2csc(C)n2)c1 | -6.74
Cc1nc(C2CCCN(C(=O)CCCn3cccn3)C2)no1 (stereo not given) | -11.8
CC1C(=O)Nc2cccnc2N1S(=O)(=O)c1cc(F)cc(F)c1 (stereo not given) | 16
CN1CCCCC1CCC(=O)NCCCn1ncc2ccccc21 (stereo not given) | -3.92
COc1ccccc1CN1CCC2(CC1)CC(Oc1ccccn1)CO2 (stereo not given) | 47.3
CC(=O)N1CCc2c(nc(-c3cccnc3)nc2N(C)CC(O)CO)C1 (stereo not given) | -6.57
CC(=O)Nc1ncc(S(=O)(=O)Nc2ccc(C)cc2)s1 | -1.08
CO[C@H]1C[C@@H](O)C12CCN(Cc1nc(C(F)(F)F)no1)CC2 | -10.9
Cc1cc(N(C)Cc2ncc[nH]2)nc(-c2cccnc2)n1 | -11.2
CC1(C)CN(C(=O)c2cc(F)cc3[nH]cnc23)CCS1 | -11
CCOC[C@]12COC[C@H]1CN(Cc1ccc(F)c(F)c1)C2 | -4.64
CN(C)S(=O)(=O)c1ccc(CN2CCCC2c2cccs2)o1 (stereo not given) | 15.3
O=C(CCN1CCCC1c1cccc(F)c1)N1CCc2sccc2C1 (stereo not given) | 0.336
O=C(C1CCCCC1)N1CCC2(CC1)CNCc1ccccc12 | 0.691
CN(Cc1ccc(F)cc1)C(=O)NCc1nnc2n1CCC2 | -10.4
O=C(CCc1ccc(Cl)s1)N1CCCC(N2CCNC2=O)C1 (stereo not given) | -17.9
COc1ccc(Cl)cc1NCC(=O)NCc1cccnc1OC | 17.6
